# Structures can show the parent of a compound that is named as a salt. Where two headings read alike, the source gives them in different places.
# Columns and labels:
# [1] = system: passive avoidance learning impairment induced by scopolamine; assay: Action on passive avoidance learning impairment induced by scopolamine; type: in vivo, Male Wistar rats; conditions: scopolamine 0.5 mg/kg i.p.
# Description: Action on passive avoidance learning impairment induced by scopolamine
# See Z. Bokolanecky & Jarvik: Int. J. Neuropharmacol, 6, 217-222(1967).
# Male Wistar rats were used as the test animal and a step-through light and dark box was used as an apparatus. A sample to detect was orally administered one hour before the training and the rats were treated with 0.5 mg/kg (i.p.) of scopolamine 30 min. before the training. In a training experiment, the animal was placed into a light room and, just after the animal had entered into a dark room, a guillotine door was closed, followed by delivery of an electric shock from the gid of the floor. After six hours, the animal was again placed into a light room for a retention experiment, and the time taken for the animal to enter the dark room was measured for evaluation of the effect of the sample.
# The difference in the response time between the physiological saline administration group and the scopolamine administration group was taken as 100%, and the effect of the sample was expressed in terms of the percentage antagonism by the sample (Reverse %).
# The number of animals per dose was 10 to 17.
# [2] = Toxicity tests on rats; conditions: rat, in vivo, no serious toxicity
# [3] = target: T1, acetylcholinesterase (Mus musculus, UniProt P21836); assay: biochemical; type: biochemical
# T1 construct: A mouse brain homogenate was used as an acetylcholinesterase source; from tissue; host or cells: mouse brain homogenate
# [4] = system: acetylcholinesterase; assay: Ex vivo acetylcholinesterase inhibitory action in rat cerebral hemispheres after oral administration; conditions: 1 h after administration, vs saline control
# Description: A sample to detect was orally administered to rats. After one hour of the administration, the cerebral hemispheres were dissected and homogenized, followed by the determination of the acetylcholinesterase activity. The group of rats treated with physiological saline was used as the control. Inhibition of AChE by samples ex vivo was expressed in terms of inhibition percent of the control value.
# [5] = 0.25 mg/kg oral 1 h before training
# [6] = 0.5 mg/kg oral 1 h before training
# [7] = 1.0 mg/kg oral 1 h before training
# [8] = read-out: AChE inhibitory activity IC50
# [9] = read-out: Inhibitory activity on AChE IC50
# T1 sequence (P21836 32-614): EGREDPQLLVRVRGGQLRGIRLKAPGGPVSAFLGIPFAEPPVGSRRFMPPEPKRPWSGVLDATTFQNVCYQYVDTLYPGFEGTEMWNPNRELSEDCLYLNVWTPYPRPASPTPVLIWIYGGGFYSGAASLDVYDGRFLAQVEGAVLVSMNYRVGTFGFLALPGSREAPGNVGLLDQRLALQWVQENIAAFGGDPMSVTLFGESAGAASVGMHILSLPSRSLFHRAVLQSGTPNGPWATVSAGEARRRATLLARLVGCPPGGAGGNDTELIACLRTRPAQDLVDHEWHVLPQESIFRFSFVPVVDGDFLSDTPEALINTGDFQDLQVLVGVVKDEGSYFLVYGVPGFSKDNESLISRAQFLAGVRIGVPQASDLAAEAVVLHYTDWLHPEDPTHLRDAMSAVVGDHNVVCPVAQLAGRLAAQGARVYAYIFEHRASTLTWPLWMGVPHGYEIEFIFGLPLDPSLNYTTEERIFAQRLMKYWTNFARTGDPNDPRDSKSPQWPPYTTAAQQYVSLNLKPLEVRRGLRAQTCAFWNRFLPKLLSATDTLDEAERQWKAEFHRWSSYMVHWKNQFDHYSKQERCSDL
compound,measurement,setting,value
"COc1cc2c(cc1OC)C(=O)C(CC1CCN(Cc3ccccc3)CC1)C2 (stereo not drawn) [Example 4, 1-Benzyl-4-[(5,6-dimethoxy-1-indanon)-2-yl]-methylpiperidine hydrochloride]",Reverse % (percentage antagonism of scopolamine effect),[1]; 0.125 mg/kg oral 1 h before training,55%
same,Reverse % (percentage antagonism of scopolamine effect),[1]; [5],36%
CC(C)OC(=O)c1nccnc1C(=O)NCCC1CCN(Cc2ccccc2)CC1 [Example 13],LD50,[2],≥ 100 mg/kg
same,Reverse % (percentage antagonism of scopolamine effect),[1]; [5],39%
same,Reverse % (percentage antagonism of scopolamine effect),[1]; [6],27%
same,IC50,[3],0.026 µM
"O=C(NCCC1CCN(Cc2ccccc2)CC1)c1cnc2ccccc2n1 [Example 15, N-[4'-(1'-Benzylpiperidyl)ethyl]-2-quinoxalinecarboxylic amide]",AChE inhibitory action (%),[4]; 10 mg/kg oral,5%
same,AChE inhibitory action (%),[4]; 30 mg/kg oral,14%
same,AChE inhibitory action (%),[4]; 100 mg/kg oral,18%
same,LD50,[2],≥ 100 mg/kg
same,Reverse % (percentage antagonism of scopolamine effect),[1]; [7],51%
same,Reverse % (percentage antagonism of scopolamine effect),[1]; 2.0 mg/kg oral 1 h before training,30%
same,IC50,[3]; [8],0.094 µM
"O=C(c1ccncc1)N(CCC1CCN(Cc2ccccc2)CC1)c1ccccc1 [Example 19, dihydrochloride]",LD50,[2],≥ 100 mg/kg
same,Reverse % (percentage antagonism of scopolamine effect),[1]; [6],37%
same,Reverse % (percentage antagonism of scopolamine effect),[1]; [7],39%
same,IC50,[3]; [8],0.064 µM
CCN1CC(=O)N(CCC2CCN(Cc3ccccc3)CC2)c2ccccc2C1 [Example 69],LD50,[2],≥ 100 mg/kg
same,Reverse % (percentage antagonism of scopolamine effect),[1]; [6],22%
same,Reverse % (percentage antagonism of scopolamine effect),[1]; [7],38%
COc1cc2c(cc1OC(C)C)CC(=CC1CCN(Cc3ccccc3)CC1)C2=O [Example 221],IC50,[3],0.033 µM
COc1cc2c(cc1OC)C(=O)C(=CCCCC1CCN(Cc3ccccc3)CC1)C2 [Example 222],IC50,[3],0.011 µM
COc1cc2c(cc1OC)C(=O)C(=CCCCCC1CCN(Cc3ccccc3)CC1)C2 [Example 223],IC50,[3],0.0054 µM
"COc1cc2c(cc1OC)C(=O)C(=CC=CC1CCN(Cc3ccccc3)CC1)C2 [Example 224, 1-benzyl-4-((5,6-dimethoxy-1-oxoindanon)-2-yl)propenylpiperidine]",IC50,[3],0.003 µM
COc1cc2c(cc1OC)C(=O)C(CN1CCC(Cc3ccccc3)CC1)C2 (stereo not drawn) [Example 225],IC50,[3]; [9],0.48 µM
COc1cc2c(cc1OC)C(=O)C(CC1CC[N+]([O-])(Cc3ccccc3)CC1)C2 (stereo not drawn) [Example 226],IC50,[3],0.0049 µM
COc1cc2c(cc1OC)C(=O)C(CC1CCN(Cc3ccc(C)cc3)CC1)C2 (stereo not drawn) [Example 229],IC50,"[3]; in vitro, mouse brain homogenate, Table 10, read-out: Inhibitory activity on AChE IC50",0.04 µM
COc1cc2c(cc1OC)C(=O)C(CC1CCN(Cc3ccccc3[N+](=O)[O-])CC1)C2 (stereo not drawn) [Example 230],IC50,[3]; [9],0.16 µM
COc1cc2c(cc1OC)C(=O)C(CC1CCN(Cc3cccc(O)c3)CC1)C2 (stereo not drawn) [Example 233],IC50,[3],0.046 µM
COc1cc2c(cc1OC)C(=O)C(CC1CCN(Cc3ccc(O)cc3)CC1)C2 (stereo not drawn) [Example 234],IC50,[3],0.0018 µM
COc1cccc(CN2CCC(CC3Cc4cc(OC)c(OC)cc4C3=O)CC2)c1 (stereo not drawn) [Example 235],IC50,[3],0.22 µM
COc1ccc(CN2CCC(CC3Cc4cc(OC)c(OC)cc4C3=O)CC2)cc1 (stereo not drawn) [Example 236],IC50,[3],3.6 µM
COc1cc2c(cc1OC)C(=O)C(CC1CCN(Cc3cccc(OCc4ccccc4)c3)CC1)C2 (stereo not drawn) [Example 237],IC50,[3],2.6 µM
COc1cc2c(cc1OC)C(=O)C(CC1CCN(Cc3cccnc3)CC1)C2 (stereo not drawn) [Example 238],IC50,[3],0.072 µM
COc1cc2c(cc1OC)C(=O)C(CC1CCN(Cc3cccc4ccccc34)CC1)C2 (stereo not drawn) [Example 241],IC50,[3],0.22 µM
COc1cc2c(cc1OC)C(=O)C(CC1CCN(Cc3ccc4ccccc4c3)CC1)C2 (stereo not drawn) [Example 242],IC50,[3],2.9 µM
COc1ccc(CN2CCC(CC3Cc4cc(OC)c(OC)cc4C3=O)CC2)cc1OC (stereo not drawn) [Example 243],IC50,[3],4 µM
COc1cc2c(cc1OC)C(=O)C(CC1CCN(Cc3cc(OC)c(OC)c(OC)c3)CC1)C2 (stereo not drawn) [Example 244],IC50,[3],4.9 µM
COc1cc2c(cc1O)C(=O)C(CC1CCNCC1)C2 (stereo not drawn) [Example 245],IC50,[3],5 µM
COc1cc2c(cc1OC)C(=NNc1ccc([N+](=O)[O-])cc1[N+](=O)[O-])C(CC1CCN(Cc3ccccc3)CC1)C2 (stereo not drawn) [Example 246],IC50,[3],4.4 µM
COc1cc2c(cc1OC)C(=O)C(NC1CCN(Cc3ccccc3)CC1)C2 (stereo not drawn) [Example 248],IC50,[3],1.4 µM
COc1cc2c(cc1OC)C(=O)C(C(C1CCN(Cc3ccccc3)CC1)C1Cc3cc(OC)c(OC)cc3C1=O)C2 (stereo not drawn) [Example 249],IC50,[3],0.62 µM

# Source: patent US4895841A (priority 1987, dated 1990)
